EP0093484A2, “Antibacterial monic acid derivatives” (BEECHAM GROUP PLC, priority 1982, dated 1983)
Values after ≈ are worked out from the molar mass of the structure shown. Where two headings read alike, the source gives them in different places.

Columns and labels:
[1] = system: M. pneumoniae ATCC 15492; test: Anti-mycoplasmal activity, MIC in Friis broth agarose; format: cell-based; conditions: Friis broth solidified with 0.9% agarose, 6 days incubation at 37°C
[2] = system: Staph. aureus Oxford; test: Veterinary bacteria, MIC by two fold serial dilution in agar
Procedure: (§1) The activity of the compounds of the Examples against various organisms important in veterinary infections was determined using two fold serial dilutions in Diagnostic Sensitivity Test Agar inoculated with 10^4 organisms.

[3] = system: Staph. aureus Oxford; test: Human bacteria, MIC by serial dilution in nutrient agar; format: cell-based; conditions: Staph. aureus Oxford (human panel), nutrient agar with 5% chocolated horse blood, 18 hours at 37°C
[4] = system: M. hyosynoviae ATCC 25591; test: Anti-mycoplasmal activity, MIC in Friis broth agarose; format: cell-based; conditions: Friis broth solidified with 0.9% agarose, 6 days incubation at 37°C
[5] = system: M. suipneumoniae LABER; test: as above; format: cell-based; conditions: Friis broth solidified with 0.9% agarose, 6 days incubation at 37°C
[6] = system: Strep. uberis SPU1; test: Veterinary bacteria, MIC by two fold serial dilution in agar
Procedure: as §1

[7] = system: M. suipneumoniae HK(2); test: Anti-mycoplasmal activity, MIC in Friis broth agarose; format: cell-based; conditions: Friis broth solidified with 0.9% agarose, 6 days incubation at 37°C
[8] = system: Ps. aeruginosa 10662; test: Human bacteria, MIC by serial dilution in nutrient agar; format: cell-based; conditions: nutrient agar with 5% chocolated horse blood, 18 hours at 37°C
[9] = system: Bord. bronchiseptica B08; test: Veterinary bacteria, MIC by two fold serial dilution in agar
Procedure: as §1

[10] = system: Strep. agalactiae 2788-B; test: Human bacteria, MIC by serial dilution in nutrient agar; format: cell-based; conditions: nutrient agar with 5% chocolated horse blood, 18 hours at 37°C
[11] = system: M. suipneumoniae NCTC 10110; test: Anti-mycoplasmal activity, MIC in Friis broth agarose; format: cell-based; conditions: Friis broth solidified with 0.9% agarose, 6 days incubation at 37°C
[12] = system: M. suipneumoniae UCD 1; test: as above; format: cell-based; conditions: Friis broth solidified with 0.9% agarose, 6 days incubation at 37°C
[13] = system: Strep. suis (group D) SPS11; test: Veterinary bacteria, MIC by two fold serial dilution in agar
Procedure: as §1

[14] = system: M. suipneumoniae TAM 6N; test: Anti-mycoplasmal activity, MIC in Friis broth agarose; format: cell-based; conditions: Friis broth solidified with 0.9% agarose, 6 days incubation at 37°C
[15] = system: Staph. aureus 152 (pen. sens.); test: Veterinary bacteria, MIC by two fold serial dilution in agar
Procedure: as §1

[16] = system: Strep. agalactiae SPA1; test: as above
Procedure: as §1

[17] = system: M. suipneumoniae PW/C/210; test: Anti-mycoplasmal activity, MIC in Friis broth agarose; format: cell-based; conditions: Friis broth solidified with 0.9% agarose, 6 days incubation at 37°C
[18] = Staph. aureus Oxford (veterinary panel), Diagnostic Sensitivity Test Agar, 18 hours at 37°C
[19] = Strep. uberis SPU1, Diagnostic Sensitivity Test Agar, 18 hours at 37°C
[20] = Bord. bronchiseptica B08, Diagnostic Sensitivity Test Agar, 18 hours at 37°C
[21] = Strep. suis (group D) SPS11, Diagnostic Sensitivity Test Agar, 18 hours at 37°C
[22] = Staph. aureus 152 (pen. sens.), Diagnostic Sensitivity Test Agar, 18 hours at 37°C
[23] = Strep. agalactiae SPA1, Diagnostic Sensitivity Test Agar, 18 hours at 37°C
[24] = Mycoplasmoides pneumoniae, ATCC15492, 144 h, read-out: MIC
[25] = Staphylococcus aureus, read-out: MIC
[26] = Mesomycoplasma hyopneumoniae, 144 h, read-out: MIC
[27] = Streptococcus uberis, SPU1, 18 h
[28] = Pseudomonas aeruginosa, read-out: MIC
[29] = Bordetella bronchiseptica, B08, 18 h
[30] = Streptococcus agalactiae, read-out: MIC
[31] = Mesomycoplasma hyopneumoniae, NCTC10110, 144 h, read-out: MIC
[32] = Mesomycoplasma hyopneumoniae, UCD1, 144 h, read-out: MIC
[33] = Mesomycoplasma hyopneumoniae, TAM6N, 144 h, read-out: MIC
[34] = Streptococcus agalactiae, SPA1, 18 h

Compound	MIC [1, 24] [µg/mL]	MIC ([2]; Staphylococcus aureus, 18 h) [µg/mL]	MIC [3, 25] [µg/mL]	MIC ([4]; 144 h, read-out: MIC) [µg/mL]	MIC [5, 26] [µg/mL]	MIC [6, 27] [µg/mL]	MIC [7, 26] [µg/mL]	MIC [8, 28] [µg/mL]	MIC [9, 29] [µg/mL]	MIC [10, 30] [µg/mL]	MIC [11, 31] [µg/mL]	MIC [12, 32] [µg/mL]	MIC ([13]; Streptococcus suis, 18 h) [µg/mL]	MIC [14, 33] [µg/mL]	MIC ([15]; Staphylococcus aureus, 18 h) [µg/mL]	MIC [16, 34] [µg/mL]	MIC [17, 26] [µg/mL]	further results
1-(p-Methylsulfinylphenyl)ethyl monate A [Example 8]	–	–	–	–	–	–	–	–	–	–	–	–	–	–	–	–	–	MIC [1]: 10 µg/mL; MIC [2, 18]: 20 µg/mL; MIC [3]: 16 µg/mL; MIC [4]: 0.5 µg/mL; MIC [5]: 2.5 µg/mL; MIC [6, 19]: .625 µg/mL; MIC [7]: 2.5 µg/mL; MIC [8]: >128 µg/mL; MIC [9, 20]: >80 µg/mL; MIC [10]: 8.0 µg/mL; MIC [11]: 2.5 µg/mL; MIC [12]: 2.5 µg/mL; MIC [13, 21]: 80 µg/mL; MIC [14]: 2.5 µg/mL; MIC [15, 22]: 5.0 µg/mL; MIC [16, 23]: >80 µg/mL; MIC [17]: 1.0 µg/mL
CSc1ccc(COC(=O)C=C(C)CC2OCC(CC3OC3C(C)C(C)O)C(O)C2O)cc1 (stereo not drawn) [Example 1, p-Methylthiobenzyl monate A]	1 (≈ 2.08 µM)	0.156 (≈ 0.325 µM)	0.5 (≈ 1.04 µM)	0.05 (≈ 0.104 µM)	0.25 (≈ 0.52 µM)	0.039 (≈ 0.0811 µM)	0.5 (≈ 1.04 µM)	> 100	20 (≈ 41.6 µM)	1 (≈ 2.08 µM)	0.5 (≈ 1.04 µM)	0.5 (≈ 1.04 µM)	2.5 (≈ 5.2 µM)	0.5 (≈ 1.04 µM)	0.156 (≈ 0.325 µM)	0.312 (≈ 0.649 µM)	0.25 (≈ 0.52 µM)	–
CC(=CC(=O)OCc1ccc([S+](C)[O-])cc1)CC1OCC(CC2OC2C(C)C(C)O)C(O)C1O (stereo not drawn) [Example 2, p- Methylsulphinylbenzyl monate A]	1 (≈ 2.01 µM)	1.25 (≈ 2.52 µM)	2.5 (≈ 5.03 µM)	0.05 (≈ 0.101 µM)	0.25 (≈ 0.503 µM)	0.156 (≈ 0.314 µM)	0.25 (≈ 0.503 µM)	> 100	40 (≈ 80.5 µM)	1 (≈ 2.01 µM)	0.25 (≈ 0.503 µM)	0.25 (≈ 0.503 µM)	2.5 (≈ 5.03 µM)	0.5 (≈ 1.01 µM)	1.25 (≈ 2.52 µM)	0.625 (≈ 1.26 µM)	0.1 (≈ 0.201 µM)	–
CC(=CC(=O)OCc1ccc(S(C)(=O)=O)cc1)CC1OCC(CC2OC2C(C)C(C)O)C(O)C1O (stereo not drawn) [Example 3, p-Methylsulphonylbenzyl monate A]	0.25 (≈ 0.488 µM)	1.25 (≈ 2.44 µM)	1 (≈ 1.95 µM)	0.025 (≈ 0.0488 µM)	0.1 (≈ 0.195 µM)	0.312 (≈ 0.609 µM)	0.25 (≈ 0.488 µM)	> 100	20 (≈ 39 µM)	0.5 (≈ 0.975 µM)	0.25 (≈ 0.488 µM)	0.25 (≈ 0.488 µM)	2.5 (≈ 4.88 µM)	0.25 (≈ 0.488 µM)	1.25 (≈ 2.44 µM)	0.625 (≈ 1.22 µM)	0.1 (≈ 0.195 µM)	–
CC(=CC(=O)OCc1cccc([S+](C)[O-])c1)CC1OCC(CC2OC2C(C)C(C)O)C(O)C1O (stereo not drawn) [Example 6, m-Methylsulfinylbenzyl monate A]	5 (≈ 10.1 µM)	5 (≈ 10.1 µM)	2.5 (≈ 5.03 µM)	5 (≈ 10.1 µM)	5 (≈ 10.1 µM)	5 (≈ 10.1 µM)	10 (≈ 20.1 µM)	> 100	> 80	25 (≈ 50.3 µM)	10 (≈ 20.1 µM)	10 (≈ 20.1 µM)	> 80	10 (≈ 20.1 µM)	5 (≈ 10.1 µM)	20 (≈ 40.3 µM)	5 (≈ 10.1 µM)	–
CC(=CC(=O)OCc1cccc(S(C)(=O)=O)c1)CC1OCC(CC2OC2C(C)C(C)O)C(O)C1O (stereo not drawn) [Example 7, m-Methylsulfonylbenzyl monate A]	2.5 (≈ 4.88 µM)	2.5 (≈ 4.88 µM)	2.5 (≈ 4.88 µM)	0.25 (≈ 0.488 µM)	0.5 (≈ 0.975 µM)	0.625 (≈ 1.22 µM)	1 (≈ 1.95 µM)	> 100	> 80	5 (≈ 9.75 µM)	1 (≈ 1.95 µM)	1 (≈ 1.95 µM)	20 (≈ 39 µM)	1 (≈ 1.95 µM)	2.5 (≈ 4.88 µM)	2.5 (≈ 4.88 µM)	0.5 (≈ 0.975 µM)	–
CC(=CC(=O)OC(C)c1ccc(S(C)(=O)=O)cc1)CC1OCC(CC2OC2C(C)C(C)O)C(O)C1O (stereo not drawn) [Example 9, 1-(p-Methylsulfonylphenyl)ethyl monate A]	0.5 (≈ 0.949 µM)	10 (≈ 19 µM)	4 (≈ 7.6 µM)	0.25 (≈ 0.475 µM)	0.5 (≈ 0.949 µM)	0.312 (≈ 0.592 µM)	1 (≈ 1.9 µM)	> 128	> 80	8 (≈ 15.2 µM)	1 (≈ 1.9 µM)	1 (≈ 1.9 µM)	40 (≈ 76 µM)	1 (≈ 1.9 µM)	5 (≈ 9.49 µM)	80 (≈ 152 µM)	–	–
m-Methylthiobenzyl monate A [Example 5]	–	–	–	–	–	–	–	–	–	–	–	–	–	–	–	–	–	MIC [1]: 5.0 µg/mL; MIC [2, 18]: .156 µg/mL; MIC [3]: 0.5 µg/mL; MIC [4]: 0.5 µg/mL; MIC [5]: 0.25 µg/mL; MIC [6, 19]: .07 µg/mL; MIC [7]: 0.5 µg/mL; MIC [8]: >100 µg/mL; MIC [9, 20]: 10 µg/mL; MIC [10]: 1.0 µg/mL; MIC [11]: 0.5 µg/mL; MIC [12]: 0.5 µg/mL; MIC [13, 21]: 1.25 µg/mL; MIC [14]: 0.5 µg/mL; MIC [15, 22]: .156 µg/mL; MIC [16, 23]: .312 µg/mL; MIC [17]: 0.25 µg/mL
